# Measured values published in ChEMBL document CHEMBL1151101, “Irritant principles of the mezereon family (Thymelaeaceae), V. New skin irritants and tumor promoters of the daphnane and 1 alpha-alkyldaphnane type from Synaptolepis kirkii and Synaptolepis retusa” (J Nat Prod, 1988).
# Key:
# Mus musculus [1] = species on record: Mus musculus; test: Skin irritant activity in NMRI mouse ear assessed as irritant dose 50 per ear after 24 hrs; format: ADME, organism-based; details: in vivo
# Mus musculus [2] = species on record: Mus musculus; test: Skin irritant activity in NMRI mouse ear assessed as irritancy after 24 hrs; format: ADME, organism-based; details: in vivo
# Mus musculus [3] = species on record: Mus musculus; test: Tumor promoting activity of DMBA-initiated tumor in back skin of NMRI mouse assessed as tumor rate at 5 nmol twice weekly measured after 12 weeks; format: organism-based, Zone of skin; details: in vivo, 2016 h
# Mus musculus [4] = species on record: Mus musculus; test: Tumor promoting activity of DMBA-initiated tumor in back skin of NMRI mouse assessed as tumor rate at 2.5 nmol twice weekly measured after 12 weeks; format: organism-based, Zone of skin; details: in vivo, 2016 h
# Mus musculus [5] = species on record: Mus musculus; test: Tumor promoting activity of DMBA-initiated tumor in back skin of NMRI mouse assessed as tumor rate at 5 nmol twice weekly measured after 24 weeks; format: organism-based, Zone of skin; details: in vivo, 4032 h
# Mus musculus [6] = species on record: Mus musculus; test: Tumor promoting activity of DMBA-initiated tumor in back skin of NMRI mouse assessed as tumor rate at 2.5 nmol twice weekly measured after 24 weeks; format: organism-based, Zone of skin; details: in vivo, 4032 h
# Mus musculus [7] = species on record: Mus musculus; test: Tumor promoting activity of DMBA-initiated tumor in back skin of NMRI mouse assessed as average tumor yeild at 5 nmol twice weekly measured after 12 weeks; format: organism-based, Zone of skin; details: in vivo, 2016 h
# Mus musculus [8] = species on record: Mus musculus; test: Tumor promoting activity of DMBA-initiated tumor in back skin of NMRI mouse assessed as average tumor yeild at 2.5 nmol twice weekly measured after 12 weeks; format: ADME, organism-based, Zone of skin; details: in vivo, 2016 h
# Mus musculus [9] = species on record: Mus musculus; test: Tumor promoting activity of DMBA-initiated tumor in back skin of NMRI mouse assessed as average tumor yeild at 5 nmol twice weekly measured after 24 weeks; format: organism-based, Zone of skin; details: in vivo, 4032 h
# Mus musculus [10] = species on record: Mus musculus; test: Tumor promoting activity of DMBA-initiated tumor in back skin of NMRI mouse assessed as average tumor yeild at 2.5 nmol twice weekly measured after 24 weeks; format: ADME, organism-based, Zone of skin; details: in vivo, 4032 h
# [11] = Tumor promoting activity of DMBA-initiated tumor in back skin of NMRI mouse assessed as survival rate at 5 nmol twice weekly measured after 24 weeks; format: organism-based, Zone of skin; details: in vivo, topical or ocular
# [12] = Tumor promoting activity of DMBA-initiated tumor in back skin of NMRI mouse assessed as survival rate at 2.5 nmol twice weekly measured after 24 weeks; format: organism-based, Zone of skin; details: in vivo, topical or ocular
# Mus musculus [13] = species on record: Mus musculus; test: Tumor promoting activity of DMBA-initiated tumor in back skin of NMRI mouse assessed as tumor rate at 10 nmol twice weekly measured after 12 weeks; format: organism-based, Zone of skin; details: in vivo, 2016 h
# Mus musculus [14] = species on record: Mus musculus; test: Tumor promoting activity of DMBA-initiated tumor in back skin of NMRI mouse assessed as tumor rate at 10 nmol twice weekly measured after 24 weeks; format: organism-based, Zone of skin; details: in vivo, 4032 h
# Mus musculus [15] = species on record: Mus musculus; test: Tumor promoting activity of DMBA-initiated tumor in back skin of NMRI mouse assessed as average tumor yeild at 10 nmol twice weekly measured after 12 weeks; format: organism-based, Zone of skin; details: in vivo, 2016 h
# Mus musculus [16] = species on record: Mus musculus; test: Tumor promoting activity of DMBA-initiated tumor in back skin of NMRI mouse assessed as average tumor yeild at 10 nmol twice weekly measured after 24 weeks; format: organism-based, Zone of skin; details: in vivo, 4032 h
# [17] = Tumor promoting activity of DMBA-initiated tumor in back skin of NMRI mouse assessed as survival rate at 10 nmol twice weekly measured after 24 weeks; format: organism-based, Zone of skin; details: in vivo, topical or ocular
# Mus musculus [18] = species on record: Mus musculus; test: Tumor promoting activity of DMBA-initiated tumor in back skin of NMRI mouse assessed as tumor rate at 20 nmol twice weekly measured after 12 weeks; format: organism-based, Zone of skin; details: in vivo, 2016 h
# Mus musculus [19] = species on record: Mus musculus; test: Tumor promoting activity of DMBA-initiated tumor in back skin of NMRI mouse assessed as tumor rate at 20 nmol twice weekly measured after 24 weeks; format: organism-based, Zone of skin; details: in vivo, 4032 h
# Mus musculus [20] = species on record: Mus musculus; test: Tumor promoting activity of DMBA-initiated tumor in back skin of NMRI mouse assessed as average tumor yeild at 20 nmol twice weekly measured after 12 weeks; format: organism-based, Zone of skin; details: in vivo, 2016 h
# Mus musculus [21] = species on record: Mus musculus; test: Tumor promoting activity of DMBA-initiated tumor in back skin of NMRI mouse assessed as average tumor yeild at 20 nmol twice weekly measured after 24 weeks; format: organism-based, Zone of skin; details: in vivo, 4032 h
# [22] = Tumor promoting activity of DMBA-initiated tumor in back skin of NMRI mouse assessed as survival rate at 20 nmol twice weekly measured after 24 weeks; format: organism-based, Zone of skin; details: in vivo, topical or ocular
compound,measurement,setting,value
C=C(C)[C@]12C[C@@H](C)[C@@]34O[C@](/C=C\C=C\CCCCC)(O[C@@H]1[C@@H]3[C@@H]1O[C@]1(CO)[C@@H](O)[C@]1(O)C(=O)C(C)=C[C@H]14)O2,Activity,Mus musculus [1],0.15 nmol
same,Activity,Mus musculus [2],6.7 nmol⁻¹
C=C(C)[C@]12O[C@@]34/C=C/CCCCCCCCCCCC(C)[C@H]5[C@H](C)C(=O)[C@@]6(O)[C@H](O)[C@@]7(CO)O[C@H]7[C@@H]([C@H]1O3)[C@](O4)([C@H](C)[C@H]2O)[C@H]56 (stereo partly specified),Activity,Mus musculus [1],0.0015 nmol
same,Activity,Mus musculus [2],667 nmol⁻¹
same,Activity,Mus musculus [3],60%
same,Activity,Mus musculus [4],6.7%
same,Activity,Mus musculus [5],86%
same,Activity,Mus musculus [6],87%
same,Activity,Mus musculus [7],1.3
same,Activity,Mus musculus [8],0.33
same,Activity,Mus musculus [9],2.7
same,Activity,Mus musculus [10],2.9
same,survival at 4032 h,[11],94%
same,survival at 4032 h,[12],100%
C=C(C)[C@]12O[C@@]3(/C=C/C=C/CCCCCCCCC)O[C@@H]1[C@@H]1[C@@H]4O[C@]4(CO)[C@@H](O)[C@]4(O)C(=O)C(C)=C[C@H]4[C@@]1(O3)[C@H](C)[C@H]2OC(C)=O,Activity,Mus musculus [1],0.03 nmol
same,Activity,Mus musculus [2],33 nmol⁻¹
C=C(C)[C@@]12C[C@@H](C)[C@@]34O[C@@]5(/C=C/CCCCCCCCCCCC(C)[C@H]6[C@H](C)C(=O)[C@@](O)([C@H](O)[C@@]7(COC(=O)CCCCCCCCCCCCCCC)O[C@H]7[C@H]3[C@H]1O5)[C@@H]64)O2 (stereo partly specified),Activity,Mus musculus [1],0.019 nmol
same,Activity,Mus musculus [2],53 nmol⁻¹
C=C(C)[C@@]1(OC(=O)/C=C/CCCCCCCCCCCCC)C[C@@H](C)[C@@]2(O)[C@H]([C@H]1O)[C@@H]1O[C@]1(CO)[C@@H](O)[C@]1(O)C(=O)C(C)=C[C@H]12,Activity,Mus musculus [1],0.08 nmol
same,Activity,Mus musculus [2],13 nmol⁻¹
C=C(C)[C@]12C[C@@H](C)[C@@]34O[C@](/C=C/CCCCCCCCCCCCC)(O[C@@H]1[C@@H]3[C@@H]1O[C@]1(CO)[C@@H](O)[C@]1(O)C(=O)C(C)=C[C@H]14)O2,Activity,Mus musculus [1],0.02 nmol
same,Activity,Mus musculus [2],50 nmol⁻¹
same,Activity,Mus musculus [13],94%
same,Activity,Mus musculus [3],6%
same,Activity,Mus musculus [14],100%
same,Activity,Mus musculus [5],69%
same,Activity,Mus musculus [15],4.7
same,Activity,Mus musculus [7],0.13
same,Activity,Mus musculus [16],9.7
same,Activity,Mus musculus [9],2.9
same,survival at 4032 h,[17],94%
same,survival at 4032 h,[11],100%
C=C(C)[C@]12O[C@@]3(/C=C/C=C/CCCCC)O[C@@H]1[C@@H]1[C@@H]4O[C@]4(CO)[C@@H](O)[C@]4(O)C(=O)C(C)=C[C@H]4[C@@]1(O3)[C@H](C)[C@H]2OC(C)=O,Activity,Mus musculus [1],0.27 nmol
same,Activity,Mus musculus [2],3.7 nmol⁻¹
same,Activity,Mus musculus [18],0%
same,Activity,Mus musculus [19],14%
same,Activity,Mus musculus [20],0
same,Activity,Mus musculus [21],0.36
same,survival at 4032 h,[22],88%
C=C(C)[C@]12C[C@@H](C)[C@@]34O[C@](CCCCCCCCC)(O[C@@H]1[C@@H]3[C@@H]1O[C@]1(CO)[C@@H](O)[C@]1(O)C(=O)C(C)=C[C@H]14)O2 [SIMPLEXIN],Activity,Mus musculus [1],0.013 nmol
same,Activity,Mus musculus [2],77 nmol⁻¹
same,Activity,Mus musculus [18],20%
same,Activity,Mus musculus [13],4%
same,Activity,Mus musculus [19],71%
same,Activity,Mus musculus [14],54%
same,Activity,Mus musculus [20],0.6
same,Activity,Mus musculus [15],0.2
same,Activity,Mus musculus [21],3
same,Activity,Mus musculus [16],1.7
same,survival at 4032 h,[22],100%
same,survival at 4032 h,[17],93%
C=C(C)[C@]12C[C@@H](C)[C@@]34O[C@](/C=C/CCCCCCCCCCCCC)(O[C@@H]1[C@@H]3[C@@H]1O[C@]1(COC(=O)CCCCCCCCCCCCCCC)[C@@H](O)[C@]1(O)C(=O)C(C)=C[C@H]14)O2,Activity,Mus musculus [1],0.16 nmol
same,Activity,Mus musculus [2],6.3 nmol⁻¹
C=C(C)[C@@]1(O)C[C@@H](C)[C@@]2(O)[C@H]([C@H]1OC(=O)/C=C/CCCCCCCCCCCCC)[C@@H]1O[C@]1(COC(=O)CCCCCCCCCCCCCCC)[C@@H](O)[C@]1(O)C(=O)C(C)=C[C@H]12,Activity,Mus musculus [1],20 nmol
same,Activity,Mus musculus [2],0.15 nmol⁻¹
C=C(C)[C@]12C[C@@H](C)[C@@]34O[C@](CCCCCCCCCCCCCCC)(O[C@@H]1[C@@H]3[C@@H]1O[C@]1(CO)[C@@H](O)[C@]1(O)C(=O)C(C)=C[C@H]14)O2,Activity,Mus musculus [1],0.04 nmol
same,Activity,Mus musculus [2],25 nmol⁻¹
C=C(C)[C@]12O[C@@]34/C=C/CCCCCCCCCCC[C@H](C)[C@H]5[C@H](C)C(=O)[C@@]6(O)[C@H](O)[C@@]7(CO)O[C@H]7[C@@H]([C@H]1O3)[C@](O4)([C@H](C)[C@H]2OC(C)=O)[C@H]56,Activity,Mus musculus [1],0.01 nmol
same,Activity,Mus musculus [2],100 nmol⁻¹
same,Activity,Mus musculus [3],33%
same,Activity,Mus musculus [4],0%
same,Activity,Mus musculus [5],100%
same,Activity,Mus musculus [6],27%
same,Activity,Mus musculus [7],0.33
same,Activity,Mus musculus [8],0
same,Activity,Mus musculus [9],4.4
same,Activity,Mus musculus [10],0.6
same,survival at 4032 h,[11],99%
same,survival at 4032 h,[12],94%
C=C(C)[C@]12O[C@@]3(/C=C/C=C/C=C\CCC)O[C@@H]1[C@@H]1[C@@H]4O[C@]4(CO)[C@@H](O)[C@]4(O)C(=O)C(C)=C[C@H]4[C@@]1(O3)[C@H](C)[C@H]2OC(C)=O,Activity,Mus musculus [1],1.1 nmol
same,Activity,Mus musculus [2],0.91 nmol⁻¹
same,Activity,Mus musculus [18],0%
same,Activity,Mus musculus [19],0%
same,Activity,Mus musculus [20],0
same,Activity,Mus musculus [21],0
same,survival at 4032 h,[22],100%
C=C(C)[C@@]12C[C@@H](C)[C@@]34O[C@@]5(/C=C/CCCCCCCCCCCC(C)(O)[C@H]6[C@H](C)C(=O)[C@@](O)([C@H](O)[C@@]7(CO)O[C@H]7[C@H]3[C@H]1O5)[C@@H]64)O2 (stereo partly specified),Activity,Mus musculus [1],0.016 nmol
same,Activity,Mus musculus [2],6 nmol⁻¹
C=C(C)[C@@]1(O)C[C@@H](C)[C@@]2(O)[C@H]([C@H]1OC(=O)/C=C/CCCCCCCCCCCCC)[C@@H]1O[C@]1(CO)[C@@H](O)[C@]1(O)C(=O)C(C)=C[C@H]12,Activity,Mus musculus [1],0.035 nmol
same,Activity,Mus musculus [2],29 nmol⁻¹
C=C(C)[C@]12O[C@@]3(/C=C/C=C/C=C\CCC)O[C@@H]1[C@@H]1[C@@H]4O[C@]4(CO)[C@@H](O)[C@]4(O)C(=O)C(C)=C[C@H]4[C@@]1(O3)[C@H](C)[C@H]2O,Activity,Mus musculus [1],0.81 nmol
same,Activity,Mus musculus [2],1.2 nmol⁻¹
C=C(C)[C@]12C[C@@H](C)[C@@]34O[C@](/C=C\C=C\CCCCCCCCCC)(O[C@@H]1[C@@H]3[C@@H]1O[C@]1(CO)[C@@H](O)[C@]1(O)C(=O)C(C)=C[C@H]14)O2,Activity,Mus musculus [1],0.02 nmol
same,Activity,Mus musculus [2],50 nmol⁻¹
C=C(C)[C@]12O[C@@]3(/C=C/C=C/CCCCC)O[C@@H]1[C@@H]1[C@@H]4O[C@]4(CO)[C@@H](O)[C@]4(O)C(=O)C(C)=C[C@H]4[C@@]1(O3)[C@H](C)[C@H]2O,Activity,Mus musculus [1],0.92 nmol
same,Activity,Mus musculus [2],1.1 nmol⁻¹
